Source: paper PMC4604124, “In Vitro Characterization of the Pharmacological Properties of the Anti-Cancer Chelator, Bp4eT, and Its Phase I Metabolites” (PLoS ONE, 2015)
Several values for one entry are separate records, joined by “and”; a condition that tells them apart may be missing. Equal values may be shown once.

Tests used:
[1] = system: A549 human lung adenocarcinoma cells; assay: MTT cytotoxicity assay, A549 cells; type: cell-based; details: for MTT, relative to control (0 = 100) / IC50: 2 000 b/j, sheet Z-Bp4eS; for IC50: MTT
In short: (§1)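 72 h/37°C exposure, 0.1% DMSO. Plating: MCF-7 5,000; HCT116, A549 2,000; H9c2 10,000 cells/well, H9c2 switched to serum/pyruvate-free DMEM 24 h. MTT OD 570 nm, 690 nm background subtracted. Viability as % untreated control; IC50 derived.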

[2] = system: HCT116 human colorectal carcinoma cells; assay: MTT cytotoxicity assay, HCT116 cells; type: cell-based; details: for IC50: MTT
In short: as §1

caspase 8 = assay: Caspase activity, luminescent kit, caspase 8; type: cell-based, human; details: for kaspáza 8, raw signal / kaspáza 8, signal / viabilita: individual experiments by date; for kaspáza 8, raw signal, průměry / kaspáza 8, % kontroly / kaspáza 8, signal / viabilita, průměry: mean; for kaspáza 8, % kontroly / kaspáza 8, signal / viabilita / kaspáza 8, signal / viabilita, průměry: normalised to viability;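 for all read-outs here: MCF-7 cells treated at 100 nM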

## CCNC(=O)NN=C(c1ccccc1)c1ccccn1 [Z-Bp4eS, 2-benzoylpyridine 4-ethylsemicarbazone]
[1]; A549, 30 μM, průměr (mean)
  MTT, relative to control (0 = 100): 91.68
[1]; A549, 30 μM, single experiment (date)
  MTT, relative to control (0 = 100): 90.8876 and 93.251 and 83.1786 and 91.8017 and 95.6624 and 95.2834
[1]; A549, 100 μM, průměr (mean)
  MTT, relative to control (0 = 100): 84.34
[1]; A549, 100 μM, single experiment (date)
  MTT, relative to control (0 = 100): 76.9185 and 86.3352 and 79.6865 and 86.589 and 88.5447 and 87.9645
[1]; A549, 300 μM, průměr (mean)
  MTT, relative to control (0 = 100): 74.88
[1]; A549, 300 μM, single experiment (date)
  MTT, relative to control (0 = 100): 67.4475 and 78.3776 and 76.2041 and 77.4903
[1]; A549, 1000 μM, průměr (mean)
  MTT, relative to control (0 = 100): 26.69
[1]; A549, 1000 μM, single experiment (date)
  MTT, relative to control (0 = 100): 18.2318 and 35.0023 and 34.1521 and 19.3887
[1]; A549, single experiment (date)
  IC50: 676 µM and 639 µM and 464 µM
[1]; H9c2/A549
  Therapeutic index, IC50 non-cancerous cells / IC50 neoplastic cells: 0.6
[1]; Homo sapiens, A549, A549, průměr (mean)
  IC50: 536 µM
[1]; Homo sapiens, A549, A549, single experiment (date)
  IC50: 364 µM
[2]; 3T3/HCT116
  Therapeutic index, IC50 non-cancerous cells / IC50 neoplastic cells: >3.0
[2]; H9c2/HCT116
  Therapeutic index, IC50 non-cancerous cells / IC50 neoplastic cells: 1.0
[2]; HCT116, 72 h/37°C, mean ± SD, n ≥ 4
  IC50: 337 ± 48.5 µM
[2]; HCT116, 2 000 b/j, 1 μM, průměr (mean), sheet Z-Bp4eS
  MTT, relative to control (0 = 100): 98.02
[2]; HCT116, 2 000 b/j, 1 μM, single experiment (date), sheet Z-Bp4eS
  MTT, relative to control (0 = 100): 92.9248 and 94.2078 and 101.373 and 103.589
[2]; HCT116, 2 000 b/j, 3 μM, průměr (mean), sheet Z-Bp4eS
  MTT, relative to control (0 = 100): 95.04
[2]; HCT116, 2 000 b/j, 3 μM, single experiment (date), sheet Z-Bp4eS
  MTT, relative to control (0 = 100): 90.3505 and 96.7506 and 97.8429 and 95.2259
[2]; HCT116, 2 000 b/j, 10 μM, průměr (mean), sheet Z-Bp4eS
  MTT, relative to control (0 = 100): 92.27
[2]; HCT116, 2 000 b/j, 10 μM, single experiment (date), sheet Z-Bp4eS
  MTT, relative to control (0 = 100): 90.1105 and 89.2672 and 98.2602 and 91.4504
[2]; HCT116, 2 000 b/j, 30 μM, průměr (mean), sheet Z-Bp4eS
  MTT, relative to control (0 = 100): 89.97
[2]; HCT116, 2 000 b/j, 30 μM, single experiment (date), sheet Z-Bp4eS
  MTT, relative to control (0 = 100): 84.3315 and 84.8984 and 97.3042 and 93.3561
[2]; HCT116, 2 000 b/j, 100 μM, průměr (mean), sheet Z-Bp4eS
  MTT, relative to control (0 = 100): 81.81
[2]; HCT116, 2 000 b/j, 100 μM, single experiment (date), sheet Z-Bp4eS
  MTT, relative to control (0 = 100): 79.36 and 76.1483 and 84.5307 and 87.1986
[2]; HCT116, 2 000 b/j, 300 μM, průměr (mean), sheet Z-Bp4eS
  MTT, relative to control (0 = 100): 62.81
[2]; HCT116, 2 000 b/j, 300 μM, single experiment (date), sheet Z-Bp4eS
  MTT, relative to control (0 = 100): 53.0737 and 67.0105 and 63.0816 and 68.093
[2]; HCT116, 2 000 b/j, 1000 μM, průměr (mean), sheet Z-Bp4eS
  MTT, relative to control (0 = 100): 14.99
[2]; HCT116, 2 000 b/j, 1000 μM, single experiment (date), sheet Z-Bp4eS
  MTT, relative to control (0 = 100): 11.223 and 18.8694 and 13.6196 and 16.2655
[2]; HCT116, 2 000 b/j, single experiment (date), sheet Z-Bp4eS
  IC50: 350 µM and 338 µM and 388 µM
[2]; Homo sapiens, HCT-116, HCT116, 2 000 b/j, průměr (mean), sheet Z-Bp4eS
  IC50: 337 µM
[2]; Homo sapiens, HCT-116, HCT116, 2 000 b/j, single experiment (date), sheet Z-Bp4eS
  IC50: 272 µM
Caspase 8; 3 hodiny
  kaspáza 8, raw signal: 1943.5 and 1086.5 and 1152 and 914.5
  kaspáza 8, raw signal, průměry: 1274.12
  kaspáza 8, % kontroly: 95.08 % kontroly
  kaspáza 8, signal / viabilita: 19.9524 and 11.1542 and 11.8267 and 9.388
  kaspáza 8, signal / viabilita, průměry: 13.0804
Caspase 8; 24 hodin
  kaspáza 8, raw signal: 1728 and 1248 and 1958.5 and 1430.5
  kaspáza 8, raw signal, průměry: 1591.25
  kaspáza 8, % kontroly: 100.61 % kontroly
  kaspáza 8, signal / viabilita: 17.3743 and 12.5481 and 19.6919 and 14.3831
  kaspáza 8, signal / viabilita, průměry: 15.9994
Caspase 8; 72 hodin
  kaspáza 8, raw signal: 6689.5 and 5535.5 and 6778.5 and 5867
  kaspáza 8, raw signal, průměry: 6217.62
  kaspáza 8, % kontroly: 96.15 % kontroly
  kaspáza 8, signal / viabilita: 71.5149 and 59.1779 and 72.4663 and 62.7218
  kaspáza 8, signal / viabilita, průměry: 66.4702
